Experimental data: the supplement of paper PMC10307832

Experiments:
Test in all cases: relative viability (nuclei count vs DMSO), 5 days (fraction); higher = more cells survive
Linsitinib + Trametinib = compound: C[C@]1(O)C[C@@H](c2nc(-c3ccc4ccc(-c5ccccc5)nc4c3)c3c(N)nccn32)C1 [Linsitinib] + CC(=O)Nc1cccc(-n2c(=O)n(C3CC3)c(=O)c3c(Nc4ccc(I)cc4F)n(C)c(=O)c(C)c32)c1 [Trametinib] (partner 0.02 µM)
Method in brief: (§1)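 Values are medians from duplicate plates. Each reflects relative viability, defined as the nuclei count of treated wells over that of vehicle wells. Lung cancer cell lines in 1536-well plates were pin-tool dosed one day after seeding with one drug alone or with a fixed anchor-drug dose plus five library-drug doses (not always all listed) in √10 steps, then fixed, stained and imaged at 4× after 5 days.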

Linsitinib + Dasatinib = compound: C[C@]1(O)C[C@@H](c2nc(-c3ccc4ccc(-c5ccccc5)nc4c3)c3c(N)nccn32)C1 [Linsitinib] + Cc1nc(Nc2ncc(C(=O)Nc3c(C)cccc3Cl)s2)cc(N2CCN(CCO)CC2)n1 [Dasatinib] (partner 0.075 µM)
Method in brief: as §1

Linsitinib + Vorinostat = compound: C[C@]1(O)C[C@@H](c2nc(-c3ccc4ccc(-c5ccccc5)nc4c3)c3c(N)nccn32)C1 [Linsitinib] + O=C(CCCCCCC(=O)Nc1ccccc1)NO [Vorinostat] (partner 1 µM)
Method in brief: as §1

Linsitinib + Decitabine = compound: C[C@]1(O)C[C@@H](c2nc(-c3ccc4ccc(-c5ccccc5)nc4c3)c3c(N)nccn32)C1 [Linsitinib] + Nc1ncn([C@H]2C[C@H](O)[C@@H](CO)O2)c(=O)n1 [Decitabine] (partner 2 µM)
Method in brief: as §1

Cell Line | relative viability (Linsitinib + Trametinib; first compound 0.01 µM) | relative viability (Linsitinib + Trametinib; first compound 0.03162 µM) | relative viability (Linsitinib + Trametinib; first compound 0.1 µM) | relative viability (Linsitinib + Trametinib; first compound 0.3162 µM) | relative viability (Linsitinib + Trametinib; first compound 1 µM) | relative viability (Linsitinib + Dasatinib; first compound 0.01 µM) | relative viability (Linsitinib + Dasatinib; first compound 0.03162 µM) | relative viability (Linsitinib + Dasatinib; first compound 0.1 µM) | relative viability (Linsitinib + Dasatinib; first compound 0.3162 µM) | relative viability (Linsitinib + Dasatinib; first compound 1 µM) | relative viability (Linsitinib + Vorinostat; first compound 0.01 µM) | relative viability (Linsitinib + Vorinostat; first compound 0.03162 µM) | relative viability (Linsitinib + Vorinostat; first compound 0.1 µM) | relative viability (Linsitinib + Vorinostat; first compound 0.3162 µM) | relative viability (Linsitinib + Vorinostat; first compound 1 µM) | relative viability (Linsitinib + Decitabine; first compound 0.01 µM) | relative viability (Linsitinib + Decitabine; first compound 0.03162 µM) | relative viability (Linsitinib + Decitabine; first compound 0.1 µM) | relative viability (Linsitinib + Decitabine; first compound 0.3162 µM) | relative viability (Linsitinib + Decitabine; first compound 1 µM)
201T | 0.7 | 0.736 | 0.702 | 0.72 | 0.753 | 0.604 | 0.581 | 0.531 | 0.725 | 0.439 | 0.941 | 1.06 | 0.972 | 0.487 | 0.832 | 0.868 | 0.881 | 0.904 | 0.832 | 0.889
A549 | – | – | – | – | – | – | – | – | – | – | – | – | – | – | – | 0.246 | 0.234 | 0.309 | 0.12 | 0.241
A-427 | 0.779 | 0.69 | 0.707 | – | 0.626 | 0.712 | 0.78 | 0.723 | – | 0.631 | 0.859 | 0.905 | 0.892 | – | 0.808 | 0.597 | 0.595 | 0.577 | – | 0.523
ABC-1 | – | – | – | – | – | 0.574 | 0.469 | 0.504 | 0.541 | 0.448 | 1.4 | 1.2 | 0.97 | 0.803 | 0.796 | 1.02 | 1.17 | 1.22 | 0.995 | 0.842
BEN | 1.12 | 1.02 | 1.03 | 0.869 | 1.11 | 0.419 | 0.316 | 0.318 | – | 0.352 | 0.513 | 0.573 | 0.534 | 0.434 | 0.474 | 0.526 | 0.945 | 0.65 | 0.442 | 0.747
CAL-12T | 0.347 | 0.364 | 0.292 | 0.28 | 0.318 | 0.362 | 0.359 | 0.485 | 0.178 | 0.273 | 0.69 | 0.744 | 0.727 | 0.524 | 0.569 | – | – | – | – | –
COR-L23 | 0.623 | 0.505 | 0.548 | 0.475 | 0.507 | 0.424 | 0.456 | 0.416 | 0.375 | 0.346 | 0.431 | 0.267 | 0.402 | 0.357 | 0.302 | 0.399 | 0.539 | 0.418 | 0.351 | 0.441
COR-L 105 | 0.427 | 0.448 | 0.441 | 0.412 | 0.389 | 0.321 | 0.374 | 0.294 | 0.289 | 0.252 | 0.749 | 0.872 | 0.712 | 0.389 | 0.609 | 0.636 | 0.569 | 0.597 | 0.554 | 0.659
ChaGo-K-1 | 0.947 | 0.973 | 0.892 | – | 0.961 | 0.649 | 0.5 | 0.588 | 0.415 | 0.588 | 0.798 | 0.774 | 0.78 | – | 0.694 | 0.504 | 0.519 | 0.49 | – | 0.51
EKVX | – | 0.321 | 0.436 | 0.234 | 0.294 | 0.603 | 0.625 | 0.532 | 0.513 | 0.5 | 0.753 | 0.785 | 0.798 | 0.481 | 0.496 | – | 0.37 | 0.329 | 0.348 | 0.324
EMC-BAC-2 | 0.93 | 0.939 | 0.82 | 0.575 | 0.593 | 0.318 | 0.323 | 0.289 | 0.445 | 0.197 | 0.44 | 0.441 | 0.426 | 0.398 | 0.214 | 0.98 | 1.11 | 0.881 | 0.733 | 0.727
EPLC-272H | 0.245 | 0.25 | 0.296 | – | 0.26 | 0.359 | 0.407 | – | – | 0.261 | 0.533 | 0.383 | 0.548 | 0.297 | 0.484 | 0.316 | 0.375 | 0.389 | – | 0.344
H3255 | – | 0.664 | 0.593 | 0.528 | 0.579 | 0.347 | 0.369 | 0.347 | 0.334 | 0.344 | – | 0.761 | 0.698 | 0.396 | 0.682 | – | 0.627 | 0.559 | 0.518 | 0.686
HARA | 0.448 | 0.809 | 0.878 | – | 0.623 | 0.278 | 0.213 | 0.294 | – | 0.204 | 0.51 | 0.513 | 0.648 | 0.347 | 0.351 | 0.518 | 0.533 | 0.526 | – | 0.678
HCC-15 | 0.376 | 0.376 | 0.286 | 0.264 | 0.287 | 0.62 | 0.559 | 0.519 | – | 0.35 | 0.822 | 0.752 | 0.763 | 0.633 | 0.705 | 0.63 | 0.509 | 0.61 | 0.28 | 0.368
HCC-44 | 0.94 | 1.04 | 1.01 | 0.716 | 0.923 | – | – | – | – | – | 1.02 | 1.01 | 1.03 | 0.734 | 1.01 | 0.922 | 0.977 | 0.919 | 0.552 | 0.746
HCC-78 | – | 0.913 | 0.698 | 0.736 | 0.578 | 0.365 | 0.437 | 0.238 | 0.554 | 0.265 | – | 0.47 | 0.462 | 0.402 | 0.315 | – | 0.818 | 0.649 | 0.588 | 0.682
HCC-366 | 0.369 | 0.381 | 0.402 | 0.317 | 0.202 | 0.644 | 0.606 | 0.488 | 0.543 | 0.174 | 0.41 | 0.328 | 0.324 | 0.218 | 0.0911 | 0.35 | 0.354 | 0.349 | 0.293 | 0.326
HCC-827 | 0.526 | 0.616 | 0.522 | – | 0.602 | 0.398 | 0.389 | 0.311 | 0.597 | 0.423 | 0.207 | 0.829 | 0.799 | – | 0.639 | 0.165 | 0.427 | 0.287 | – | 0.34
